The values below come from patent US9174968B2, “Pyrimidinone compounds for use in the treatment of diseases or conditions mediated by LP-PLA2” (GLAXO GROUP LIMITED, priority 2010, dated 2015).

Structures are written as SMILES.

In experiment [1] the test system is proinflammatory (M1) and anti-inflammatory (M2) markers in macrophages. Nature of the experiment: Experimental autoimmune encephalomyelitis (EAE) model, ex vivo analysis of M1 and M2 markers by realtime PCR. The class given is in vivo, rats. As to conditions: EAE induced with MBP, splenic macrophages day 13 and CNS infiltrating macrophages. On the procedure: A further study was carried out to study the impact of Lp-PLA2 inhibitors on modulating M1/M2 imbalance. In this study, rats were induced to develop experimental autoimmune encephalomyelitis (EAE) by immunization with myelin basic protein (MBP) antigen and treated with a known Lp-PLA2 inhibitor: 5-((9-Methoxy-4-oxo-6,7-dihydro-4H-pyrimido[6,1-a]isoquinolin-2-yl)oxy)-2-(3-(trifluoromethyl)phenoxy)benzonitrile (See PCT application no. PCT/CN2011/001597) For preventive treatment, compound administration started at day 0 whereas it started at 7 day in therapeutic treatment. Rats were subsequently monitored for symptoms of EAE. Rats were immunized with MBP to develop EAE and symptoms were monitored daily. Plasma Lp-PLA2 activity and LysoPC concentration were determined at different time points through the course of EAE.
Ex vivo analysis of proinflammatory (M1) and anti-inflammatory (M2) markers in control and compound treated EAE […]. Splenic macrophages were harvested at day 13 post MBP-immunization and assayed for expression of a variety of markers by realtime PCR. CNS infiltrating cells were harvested and macrophages were analyzed for expression of M1 and M2 markers by realtime PCR.

Experiment [2] has as its target T1, recombinant human Lp-PLA2 (Homo sapiens, UniProt Q13093).
T1 sequence (Q13093 22-441): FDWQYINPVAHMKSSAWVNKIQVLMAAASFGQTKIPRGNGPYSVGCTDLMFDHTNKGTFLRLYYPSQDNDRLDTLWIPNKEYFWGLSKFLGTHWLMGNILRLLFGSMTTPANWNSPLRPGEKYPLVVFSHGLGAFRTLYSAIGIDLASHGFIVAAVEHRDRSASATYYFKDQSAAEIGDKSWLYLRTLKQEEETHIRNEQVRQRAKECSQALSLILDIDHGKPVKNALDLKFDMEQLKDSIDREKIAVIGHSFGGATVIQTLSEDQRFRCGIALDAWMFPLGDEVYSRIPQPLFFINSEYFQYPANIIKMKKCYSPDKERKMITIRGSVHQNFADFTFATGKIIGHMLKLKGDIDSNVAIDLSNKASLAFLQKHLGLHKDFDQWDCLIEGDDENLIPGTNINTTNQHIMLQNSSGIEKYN
Nature of the experiment: Recombinant human Lp-PLA2 assay (rhLp-PLA2, PED6 assay). The class given is biochemical. Conditions: upper limit for pIC50 obtained in this assay is 9.3. The source says: (1) Recombinant Human Lp-PLA2 Assay (rhLp-PLA2) (Also Referred to as “PED6” Assay)
N-((6-(2,4-dinitrophenyl)amino)-hexanoyl)-2-(4,4-difluoro-5,7-dimethyl-4-bora-3a,4a-diaza-s-indacene-3-pentanoyl)-1-hexadecanoyl-sn-glycero-3-phosphoethanolamine, triethylammonium salt (PED6) is a commercially available fluorescently-labelled phospholipid, which is commercially available from Molecular Probes. There is a quenching para-nitro phenyl (PNP) group in the sn3 position and a Bodipy fluorescein (FL) group in the sn2 position. Upon cleavage with Lp-PLA2, the Bodipy F1 group is liberated and then may result in an increase in fluorescence.
The PED6 assay was run as an unquenched 10 μL assay. Compounds source plate was prepared by making 1:3 (by volume) serial dilution of the compounds into pure DMSO on 384-well microplate. […] 5 μL of recombinant human Lp-PLA2 enzyme (2 nM rhLp-PLA2 in assay buffer of 50 mM HEPES, pH7.4, 150 mM NaCl, 1 mM CHAPS) was added to each well of the plate with compounds. Plates were centrifuged for 10 sec at 500 rpm. […] Plates were centrifuged for 10 sec at 500 rpm. Plate was covered to protect from light and incubated for 20 min at room temperature. […] PIC50 data, curve and QC analysis was conducted by using XL fit module in Excel.

For experiment [3], the target named is T2, Lp-PLA2 from plasma (pooled human plasma) (Homo sapiens, UniProt Q13093).
T2 construct: from tissue; host or cells: pooled human plasma
T2 sequence (Q13093 22-441): T1 sequence (Q13093 22-441)
Briefly: Lp-PLA2 human plasma assay (Thio-PAF assay). It counts as biochemical. As to conditions: read-out: pIC50 in the thio-PAF assay (converted). The source says:
(3) Lipoprotein-Associated Phospholipase A2 (Lp-PLA2) Human Plasma Assay (Also Referred to as “Thio-PAF Assay”)
The human plasma assay utilizes a thioester analog of PAF (phosphatidylcholine), where hydrolysis yields to the formation of a phospholipid containing a free thiol group. The amount of thiol is quantitated continuously by reacting with CPM (7-diethylamino-3-(4′-maleimidylphenyl)-4-methylcoumarin), a maleimide which increases in fluorescence after Michael addition of thiols. This assay may detect the activity of Lp-PLA2 from plasma, as determined by specific inhibition by Lp-PLA2 inhibitors.
The thio-PAF assay was run as a quenched 15 μL assay. Compounds source plate was prepared by making 1:3 (by volume) serial dilution of the compounds into pure DMSO on 384-well microplate. 0.01 μL of compounds on compound source plate were transferred to 384 well Greiner 784076 (black) low-volume plates by ECHO liquid dispenser. 8 μL pooled human plasma, which was previously aliquoted and frozen, was added. Plates were centrifuged for 10 sec at 500 rpm. After 30 minutes preincubation, 2 μL of substrate (2.5 mM thio-PAF, 3.2 mM NEM (N-ethylmaleimide) [made fresh daily in DMSO], and 32 μM CPM [from a DMSO stock] in assay buffer of 50 mM HEPES, pH7.4, 150 mM NaCl, 1 mM CHAPS was added to 384 well Greiner 784076 (black) low-volume plates by BRAVO liquid handling station. Plates were centrifuged for 10 sec at 500 rpm. Plate was covered to protect from light and incubated for 2 min at room temperature. Reaction was quenched with 5 μL of 5% aqueous trifluoroacetic acid (TFA). Plates were covered to protect from light and incubated for 40 min at room temperature. Plates were read at ex: 380/em: 485 using-Envision microplate reader. PIC50 data, curve and QC analysis was conducted by using XLFit module in Excel.
All exemplified compounds of the present invention were tested in thio-PAF assay or similar assay as described above.

As to `COc1ccc2c(c1)CCn1c-2cc(Oc2ccc(Oc3cccc(C(F)(F)F)c3)c(C#N)c2)nc1=O` [5-((9-Methoxy-4-oxo-6,7-dihydro-4H-pyrimido[6,1-a]isoquinolin-2-yl)oxy)-2-(3-(trifluoromethyl)phenoxy)benzonitrile], in experiment [1], the “M1 markers (proinflammatory) expression” value is given as “decrease” and the “M2 markers (anti-inflammatory) expression” value was “increase”.
As for `CCc1c[nH]c(CCc2ccc(Oc3cccc(C(F)(F)F)c3)cc2)nc1=O` [E37, 5-ethyl-2-(4-(3-(trifluoromethyl)phenoxy)phenethyl)pyrimidin-4(1H)-one], the IC50 in experiment [2] and in experiment [3] was greater than 10 µM throughout.
As for `CCc1c[nH]c(CCc2ccc(Oc3ccc(F)cc3)cc2)nc1=O` [E46, 5-ethyl-2-(4-(4-fluorophenoxy)phenethyl)pyrimidin-4(1H)-one], the IC50 in experiment [2] was greater than 10 µM.
On to `COc1ncc(Cc2c[nH]c(OCCc3ccc(Oc4ncccn4)cc3)nc2=O)cn1` [E147, 5-((2-methoxypyrimidin-5-yl)methyl)-2-(4-(pyrimidin-2-yloxy)phenethoxy)pyrimidin-4(1H)-one], for which the IC50 in experiment [2] and in experiment [3] was greater than 10 µM in each case.
For the molecule `CCc1c[nH]c(OCCc2ccc(Oc3c(F)cc(Cl)cc3F)cc2)nc1=O` [E180, 2-(4-(4-chloro-2,6-difluorophenoxy)phenethoxy)-5-ethylpyrimidin-4(1H)-one], the IC50 in experiment [2] and in experiment [3] was greater than 10 µM each time.
Regarding `O=c1nc(NCCc2ccc(Oc3ccc(Cl)c(C(F)(F)F)c3)cc2)[nH]cc1CN1CCCC1` [E215, 2-{2-[4-(4-chloro-3-trifluoromethyl-phenoxy)-phenyl]-ethylamino}-5-pyrrolidin-1-ylmethyl-1H-pyrimidin-4-one], the IC50 in experiment [3] is greater than 10 µM.
